One may read the IC50 as the point on the concentration scale where inhibition reaches its midpoint. Low readings indicate inhibition by little substance, high ones a need for much substance.

In patent US20240335462A1, “SULFUR/PHOSPHORUS-CONTAINING ARYL COMPOUND AND APPLICATION THEREOF” (MEDSHINE DISCOVERY INC., priority 2021, published 2024) one finds IC50 data, which are given here for 3 compounds.

What all share (type): cell-based
Assay [1] concerns JAK2/2 signaling pathway (TPO/pSTAT5). Kind of assay: TPO-induced STAT phosphorylation in human platelet-rich plasma. As for the experimental part:
(§1) The purpose of this experiment was to detect the inhibitory effect of the compound on the JAK-STAT signaling pathway activated by cytokines in human whole blood or platelet-rich plasma. Fresh human whole blood/platelets were placed in a 96-well plate. The test compound was added and incubated for 1 hour, followed by stimulation with various cytokines. The corresponding STAT phosphorylation levels in different cell populations were analyzed using flow cytometer by means of surface antibody staining and intracellular phosphorylated antibody staining. The experiments using the cytokines IFN-α, […] as stimulants were conducted in human whole blood, whereas the experiment using the cytokine TPO as a stimulant was conducted in platelet-rich plasma.
• a) Fresh blood from volunteers was collected using EDTA anticoagulant tubes and centrifuged at 200 g for 20 minutes to prepare platelet-rich plasma (PRP). • b) 90 μL per well of PRP was rapidly seeded into a 96-well plate and incubated in a cell culture incubator for 15 minutes. […] The plate was then incubated in the incubator for 15 minutes. • d) After incubation, the plate was centrifuged at 1000×g for 10 minutes, then the supernatant was discarded, and the cells were washed twice with 200 μL of PBS. • e) PE-anti-human CD61 antibody was added to each well, followed by incubation at room temperature for 40 minutes. • f) After incubation, the plate was centrifuged at 1000×g for 10 minutes, then the supernatant was discarded, and the cells were washed twice with 200 μL of PBS. • g) The cells were resuspended in 200 μL of pre-cooled Perm Buffer III and permeabilized on ice for 60 minutes. • h) The plate was centrifuged at 1000×g for 10 minutes, then the supernatant was discarded, and the cells were washed twice with pre-cooled PBS. • i) Intracellular anti-pSTAT5 phosphorylated antibody was added thereto, followed by incubation at room temperature for 60 minutes. • j) The cells were washed twice with PBS and resuspended in 200 μL of PBS, and then detected using the CytoFlex S flow cytometer. […]

The test system of assay [2] is TYK2 signaling pathway (IFN-α/pSTAT5). Briefly: IFN-α-induced STAT phosphorylation in human whole blood. As for the experimental part: as §1
(§2) • a) Fresh blood from volunteers was collected using EDTA anticoagulant tubes. • b) 90 μL per well of whole blood was rapidly seeded into a 96-well plate and incubated in a cell culture incubator for 15 minutes. […] The plate was centrifuged at 500×g for 8 minutes, and the supernatant was discarded. • g) The cell pellet was washed once with pre-cooled PBS. • h) After discarding the supernatant, anti-human CD3 antibody was added thereto, followed by incubation at room temperature for 40 minutes. • i) The plate was centrifuged at 500×g for 8 minutes, then the supernatant was discarded, and the cells were washed twice with 200 μL of pre-cooled PBS. • j) The cells were resuspended in 200 μL of pre-cooled Perm Buffer III per well and permeabilized on ice for 60 minutes. • k) The plate was centrifuged at 600×g for 8 minutes, then the supernatant was discarded, and the cells were washed twice with pre-cooled PBS. • l) Intracellular staining with anti-pSTAT5 antibody was carried out, followed by incubation at room temperature for 60 minutes. • m) The cells were centrifuged at 600×g for 8 minutes, washed twice with PBS, resuspended in 200 μL of PBS, and detected using the CytoFlex S flow cytometer. • n) Data analysis was conducted using FlowJo and GraphPad Prism 8 software.
(§3) Data were analyzed using FlowJo software. […]

Assay [3] deals with JAK1/3 signaling pathway (IL-2/pSTAT5). Briefly: IL-2-induced STAT phosphorylation in human whole blood. The method, then:
as §1, §2, §3

The test system of assay [4] is JAK1/2 signaling pathway (IL-6/pSTAT3). Briefly: IL-6-induced STAT phosphorylation in human whole blood. As for the experimental part:
as §1, §2, §3

For `CNC(=O)c1cnc(NC(=O)C2CC2)cc1Nc1cccc(-c2ncc(S(=O)(=O)C(C)C)cn2)c1OC` [WX-019], the half-maximal inhibitory concentration (IC50) was over 100 µM in assay [1], 0.0297 µM in assay [2], 33.8 µM in assay [3] and 33.9 µM in assay [4].

On to `CNC(=O)c1cnc(NC(=O)C2CC2)cc1Nc1cccc(-c2ccc(S(=O)(=O)C(C)C)cn2)c1OC` [WX-020], for which the concentration for half-maximal inhibition (IC50) in assay [1] is over 100 µM; in assay [2] it was 0.0403 µM; in assay [3], over 100 µM; in assay [4], over 100 µM.

`CNC(=O)c1nnc(NC(=O)C2CC2)cc1Nc1cccc(-c2ncc(S(=N)(=O)C(C)C)cn2)c1OC` (single isomer, unassigned) [WX-011A]: the IC50 in assay [1] is over 100 µM; in assay [2], 0.0231 µM; in assay [3], 11.2 µM; in assay [4] it was 10.8 µM.
